How the values were obtained:
ABCG2 (BCRP) = assay: Hoechst 33342 / R123 efflux (SP phenotype) in freshly isolated therapy naive non-small cell lung tumor cells; type: cell-based; details: human, probe Hoechst 33342; inhibitor 10 microM; coincubation with Hoechst 33342 8 microM and R123 0.13 microM, 90 minutes at 37° C.
Protocol: Antibody stained suspended tumor cells were incubated simultaneously with the ABCG2/ABCB1 substrate Hoechst 33342 (8 microM) plus the ABCB1 substrate rhodamine 123 (R123, 0.13 microM) for 90 minutes at 37° C. Propidium iodide (PI, 10 microg/mL) was added immediately before sample acquisition. All events were gated on PI excluding (live), non-hematopoietic singlets. Five million events were collected. This basic experimental design has been repeated, with modifications, on 10 samples from untreated breast, ovarian, gastric and lung tumors with consistent results.
SP (top panels) and non-SP cells (bottom panels) were further characterized: A proportion of SP cells also excluded the ABCB1 substrate dye R123. These accounted for 29% of the SP cells (color-evented red in the dot plots) and accounted for almost all of the cells with low forward and side light scatter consistent with a resting morphology (FIG. 5). […] A significant proportion of both SP and non-SP cells expressed CD90, often in combination with epithelial specific antigen, HEA.

[1] = tested on: K562-G185 cells (ABCB1/MDR1 transfectant); assay: Hoechst 33342 efflux (side population, SP) in MDR1-transfected K562-G185 cells with and without inhibitors; type: cell-based, human; details: CD117- cells; Ho33342 8 microM and R123 0.13 microM, 90 min
Protocol: (§1) Cells were stained with anti-CD117 and incubated for 90 min in the presence of Ho33342 (8 microM, ˜5 microg/mL) and R123 (0.13 microM) with and without inhibitors. PI was added immediately before acquisition on the MoFlo flow cytometer in order to eliminate dead cells. Events were gated to exclude cell clusters and dead cells. The side population (SP) phenotype (blue gate) and R123 excluding cells (single parameter histogram left of the dashed line) were measured on CD117− (top panels) and CD117+ (bottom panels).
(§2) Here, the SP cells (within the blue gate in the left plots) is color evented blue, whereas SP negative cells are shown in gray.
(§3) Simultaneous measurement of R123 and Ho33342 dye efflux. […] Two cell lines were used, the parent line K562, which has a small subpopulation of CD117+ cells which constitutively express ABCG2 (BCRP1), and the ABCB1 (MDR1) transfectant line K562-G185 (39) (FIG. 9). G185 cells were maintained in vincristine (100 ng/mL) to select against ABCB1 negative cells.

[2] = tested on: parental K562 cells (native ABCG2); assay: Hoechst 33342 efflux (side population, SP) in parental K562 cells with and without inhibitors; type: cell-based, human
Protocol: as §1, §2, §3

## COc1ccc2c3c([nH]c2c1)[C@H](C=C(C)C)N1C(=O)[C@@H]2CCCN2C(=O)[C@@H]1C3 [fumitremorgin]
ABCG2 (BCRP)
  inhibition at 90 min, 10 microM: 75%
[1]
  effect on the side population (SP), in words: not affected
[2]; CD117+ population of parental K562 cells
  effect on Ho33342 transport, in words: abrogates
[2]; CD117- cells, native SP 1.42% of cells, Ho33342 8 microM, 90 min
  inhibition of the native SP phenotype, in words: equally inhibited

## CC[C@]1(O)C[C@H]2CN(CCc3c([nH]c4ccccc34)[C@@](C(=O)OC)(c3cc4c(cc3OC)N(C=O)[C@H]3[C@@](O)(C(=O)OC)[C@H](OC(C)=O)[C@]5(CC)C=CCN6CC[C@]43[C@@H]65)C2)C1 [vincristine]
[1]
  effect on the side population (SP), in words: not affected

Reference: patent US20070254319A1, “IDENTIFICATION OF A CONS[…] CANCER STEM CELL” (University of Pittsburgh - Of the Commonwealth System of …, priority 2006, published 2007)
